Reference: PubChem BioAssay AID248 (DTP/NCI, 2004)
“And” between values parts separate entries of the source, which are not always exact repeats. Equal values may be shown once. Inconclusive results and toxic doses are left out. No stated cut-off is given here; in the data, active means T/C of 150% or more; inactive means T/C below 125%.

System: L1210 leukemia ip in BDF1 mice, survival T/C
Experiment: NCI In Vivo Anticancer Drug Screen. Data for tumor model L1210 Leukemia (intraperitoneal) in B6D2F1 (BDF1) mice
Conditions: endpoint: mean survival time, higher = longer survival
Procedure, shortened: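 In this screen, tumor-bearing mice given compound are compared to those given vehicle, and their survival values are reported as a treated-to-control quotient.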

[1] = dose: 100.0 mg/kg/injection, schedule: Q04DX003 (ip), vehicle: other
[2] = dose: 200.0 mg/kg/injection, schedule: Q04DX003 (ip), vehicle: other
[3] = dose: 50.0 mg/kg/injection, schedule: Q01DX009 (ip), vehicle: saline with Tween-80
[4] = dose: 100.0 mg/kg/injection, schedule: Q01DX009 (ip), vehicle: saline with Tween-80
[5] = dose: 100.0 mg/kg/injection, schedule: Q04DX003 (ip), vehicle: saline
[6] = dose: 200.0 mg/kg/injection, schedule: Q01DX009 (ip), vehicle: saline with Tween-80
[7] = dose: 200.0 mg/kg/injection, schedule: Q04DX003 (ip), vehicle: saline
[8] = dose: 100.0 mg/kg/injection, schedule: Q04DX003 (ip), vehicle: saline with Tween-80
[9] = dose: 200.0 mg/kg/injection, schedule: Q04DX003 (ip), vehicle: saline with Tween-80
[10] = dose: 400.0 mg/kg/injection, schedule: Q01DX009 (ip), vehicle: saline with Tween-80
[11] = dose: 400.0 mg/kg/injection, schedule: Q04DX003 (ip), vehicle: saline with Tween-80
[12] = dose: 25.0 mg/kg/injection, schedule: Q04DX003 (ip), vehicle: Klucel (hydroxypropylcellulose) (HPC)
[13] = dose: 50.0 mg/kg/injection, schedule: Q04DX003 (ip), vehicle: Klucel (hydroxypropylcellulose) (HPC)
[14] = dose: 100.0 mg/kg/injection, schedule: Q04DX002 (ip), vehicle: Klucel (hydroxypropylcellulose) (HPC)
[15] = dose: 200.0 mg/kg/injection, schedule: Q04DX002 (ip), vehicle: Klucel (hydroxypropylcellulose) (HPC)
[16] = dose: 400.0 mg/kg/injection, schedule: Q04DX002 (ip), vehicle: Klucel (hydroxypropylcellulose) (HPC)
[17] = dose: 50.0 mg/kg/injection, schedule: Q01DX001 (ip), vehicle: saline
[18] = dose: 100.0 mg/kg/injection, schedule: Q01DX001 (ip), vehicle: saline
[19] = dose: 100.0 mg/kg/injection, schedule: Q04DX003 (ip), vehicle: gum acacia
[20] = dose: 200.0 mg/kg/injection, schedule: Q04DX003 (ip), vehicle: gum acacia
[21] = dose: 400.0 mg/kg/injection, schedule: Q04DX003 (ip), vehicle: gum acacia
[22] = dose: 100.0 mg/kg/injection, schedule: Q01DX001 (ip), vehicle: carboxymethylcellulose (CMC)
[23] = dose: 200.0 mg/kg/injection, schedule: Q01DX001 (ip), vehicle: carboxymethylcellulose (CMC)
[24] = dose: 400.0 mg/kg/injection, schedule: Q01DX001 (ip), vehicle: carboxymethylcellulose (CMC)
[25] = dose: 200.0 mg/kg/injection, schedule: Q01DX001 (ip), vehicle: saline
[26] = dose: 400.0 mg/kg/injection, schedule: Q01DX001 (ip), vehicle: saline
[27] = dose: 100.0 mg/kg/injection, schedule: Q04DX003 (ip), vehicle: Klucel (hydroxypropylcellulose) (HPC)

Measured: T/C

O=C(OCC1CCN2CCCC12)c1ccccc1 (configuration not stated)
inactive: dose: 12.5 mg/kg/injection, schedule: Q04DX003 (ip), vehicle: saline 104 % of control | dose: 25.0 mg/kg/injection, schedule: Q04DX003 (ip), vehicle: saline 110 % of control | dose: 50.0 mg/kg/injection, schedule: Q04DX003 (ip), vehicle: saline 102 % of control

O=S(=O)(OCC1CC2C=CC1C2)c1ccc(Br)cc1 (configuration not stated)
inactive: [1] 86 % of control | [2] 89 % of control | dose: 400.0 mg/kg/injection, schedule: Q04DX003 (ip), vehicle: other 89 % of control

O=C1OC(=O)C2C(c3ccccc3)C=CC(c3ccccc3)C12 (configuration not stated)
inactive: [3] 98 % of control | [4] 108 % of control | [5] 92 % of control | [6] 98 % of control | [7] 108 % of control

C=CCC(O)CCC (configuration not stated)
inactive: [4] 89 % of control | [8] 97 % of control | [6] 90 % of control | [9] 100 % of control | [10] 89 % of control | [11] 100 % of control

CNC1C(c2ccc(C)cc2)=NN(c2ccccc2)C1c1ccccc1 (configuration not stated)
inactive: dose: 100.0 mg/kg/injection, schedule: Q01DX001 (ip), vehicle: saline sonified 95 % of control | dose: 200.0 mg/kg/injection, schedule: Q01DX001 (ip), vehicle: saline sonified 95 % of control | dose: 400.0 mg/kg/injection, schedule: Q01DX001 (ip), vehicle: saline sonified 89 % of control

O=c1[nH]nc(-c2ccc(C(F)(F)F)cc2)s1
inactive: dose: 75.0 mg/kg/injection, schedule: Q01DX001 (ip), vehicle: saline 95 % of control | dose: 75.0 mg/kg/injection, schedule: Q04DX003 (ip), vehicle: saline 93 % of control | dose: 150.0 mg/kg/injection, schedule: Q01DX001 (ip), vehicle: saline 104 % of control | dose: 150.0 mg/kg/injection, schedule: Q04DX003 (ip), vehicle: saline 98 % of control | dose: 300.0 mg/kg/injection, schedule: Q01DX001 (ip), vehicle: saline 97 % of control | dose: 300.0 mg/kg/injection, schedule: Q04DX003 (ip), vehicle: saline 98 % of control

CC(=O)Nc1ccc[n+](Cc2ccc(S(=O)(=O)F)cc2)c1
inactive: [12] 104 % of control | [13] 104 % of control

CCCNC(=O)C1C2C=CC(C2)C1C(=O)NCCC (configuration not stated)
inactive: [8] 91 % of control | [9] 91 % of control | [11] 91 % of control

COC(=O)c1ccccc1NC(=O)Nc1cccc(C(F)(F)F)c1
inactive: [14] 101 % of control | [15] 92 % of control | [16] 105 % of control

CN(CC(O)CN)c1ccc(Cl)cc1 (configuration not stated)
inactive: dose: 25.0 mg/kg/injection, schedule: Q01DX001 (ip), vehicle: saline with Tween-80 104 % of control | dose: 50.0 mg/kg/injection, schedule: Q01DX001 (ip), vehicle: saline with Tween-80 101 % of control | dose: 100.0 mg/kg/injection, schedule: Q01DX001 (ip), vehicle: saline with Tween-80 100 % of control and 103 % of control

CC(=O)N(N=O)c1c(C)cccc1C
inactive: [17] 102 % of control | [18] 105 % of control

N#CCC(N)=S
inactive: dose: 25.0 mg/kg/injection, schedule: Q04DX002 (ip), vehicle: gum acacia 120 % of control | dose: 50.0 mg/kg/injection, schedule: Q04DX002 (ip), vehicle: gum acacia 109 % of control

Cc1ccc(Oc2ccc(-c3cc(=O)c4cc(S(=O)(=O)F)ccc4[nH]3)cc2)cc1
inactive: [19] 96 % of control | [20] 88 % of control | [21] 86 % of control

O=CNNC(=O)c1cccc([N+](=O)[O-])c1
inactive: dose: 100.0 mg/kg/injection, schedule: Q01DX001 (ip), vehicle: other 95 % of control | [1] 97 % of control | dose: 200.0 mg/kg/injection, schedule: Q01DX001 (ip), vehicle: other 101 % of control | [2] 95 % of control | dose: 400.0 mg/kg/injection, schedule: Q01DX001 (ip), vehicle: other 92 % of control

O=c1[nH]nc(S(=O)(=O)N2CCOCC2)c(=O)[nH]1
inactive: [22] 98 % of control | [23] 96 % of control | [24] 96 % of control

NC(=O)N/N=C/c1cc(=O)[nH]c(=O)[nH]1
inactive: [18] 88 % of control | [25] 97 % of control | [26] 97 % of control

O=C(O)Cc1ccc(I)cc1
inactive: [19] 98 % of control | [20] 96 % of control | [21] 94 % of control

O=C1CC2CCC(C1)N2CC1COc2ccccc2O1 (configuration not stated)
inactive: [18] 100 % of control | [25] 120 % of control

CC(=O)C(C[CH2][Hg][Cl])C(C)=O
inactive: dose: 9.37 mg/kg/injection, schedule: Q01DX001 (ip), vehicle: other 96 % of control | dose: 18.75 mg/kg/injection, schedule: Q01DX001 (ip), vehicle: other 97 % of control | dose: 37.5 mg/kg/injection, schedule: Q01DX001 (ip), vehicle: other 100 % of control

CCCCNC(=O)Nc1cc(Cl)c(Cl)cc1C
inactive: [14] 91 % of control | [15] 97 % of control | [16] 97 % of control

O=C1CCCC/C1=C/c1ccco1
inactive: [14] 95 % of control | [15] 99 % of control | [16] 99 % of control

COCN(C(=O)CCl)c1c(C)cccc1C(C)(C)C
inactive: [4] 95 % of control | [6] 97 % of control | [10] 93 % of control

O=[N+]([O-])c1c(Cl)cc(Cl)c([N+](=O)[O-])c1Cl
inactive: [27] 94 % of control | dose: 200.0 mg/kg/injection, schedule: Q04DX003 (ip), vehicle: Klucel (hydroxypropylcellulose) (HPC) 90 % of control | dose: 400.0 mg/kg/injection, schedule: Q04DX003 (ip), vehicle: Klucel (hydroxypropylcellulose) (HPC) 94 % of control

COC(=O)C(CCSC)NC(=O)c1ccccc1 (configuration not stated)
inactive: [4] 93 % of control | [6] 96 % of control

Oc1ccc(Br)c2cccnc12
inactive: [17] 100 % of control | [18] 103 % of control | [25] 103 % of control | [26] 100 % of control

O=c1[nH]c(=O)n(C2CCCO2)cc1I (configuration not stated)
inactive: [22] 95 % of control | [23] 98 % of control | [24] 93 % of control

Cc1cc2c3ccccc3[nH]c(=O)n2n1
inactive: [4] 96 % of control | [5] 100 % of control | [6] 95 % of control | [7] 96 % of control | [10] 86 % of control | dose: 400.0 mg/kg/injection, schedule: Q04DX003 (ip), vehicle: saline 87 % of control

CC1C2CC3OC(=O)C1(C)C3C2 (configuration not stated)
inactive: [18] 92 % of control | [25] 98 % of control | [26] 96 % of control

COC(=O)c1ncccc1C(=O)O
inactive: [3] 96 % of control | [4] 93 % of control

CCCOC(=O)c1ccccc1
inactive: dose: 100.0 mg/kg/injection, schedule: Q01DX001 (ip), vehicle: Klucel (hydroxypropylcellulose) (HPC) 100 % of control | dose: 200.0 mg/kg/injection, schedule: Q01DX001 (ip), vehicle: Klucel (hydroxypropylcellulose) (HPC) 97 % of control | dose: 400.0 mg/kg/injection, schedule: Q01DX001 (ip), vehicle: Klucel (hydroxypropylcellulose) (HPC) 97 % of control

CC1NC(=S)NC(=O)C1CCSC(=N)N (configuration not stated)
inactive: [18] 104 % of control | [25] 98 % of control

Nc1ccc(-c2ccc(NC(=O)C(=O)O)cc2)cc1
inactive: dose: 12.5 mg/kg/injection, schedule: Q04DX003 (ip), vehicle: Klucel (hydroxypropylcellulose) (HPC) 101 % of control | dose: 25.0 mg/kg/injection, schedule: Q01DX009 (ip), vehicle: Klucel (hydroxypropylcellulose) (HPC) 95 % of control | [12] 97 % of control | dose: 50.0 mg/kg/injection, schedule: Q01DX009 (ip), vehicle: Klucel (hydroxypropylcellulose) (HPC) 97 % of control | [13] 111 % of control | dose: 100.0 mg/kg/injection, schedule: Q01DX009 (ip), vehicle: Klucel (hydroxypropylcellulose) (HPC) 100 % of control | [27] 111 % of control
